For orientation: IC50 means the point on the concentration scale where inhibition reaches its midpoint.

In assay [1] the test system is GDF8 signaling (GDF pSMAD, MPC11). The assay is described as follows: AlphaScreen SureFire SMAD3 (p-Ser423/425) assay, inhibition of GDF8 signaling. Format: cell-based. The settings on record: Mus musculus, MPC-11, p-SMAD-3 (Ser423/425) in cell lysate after GDF8 stimulation. For orientation: Bead proximity is the source of the signal in Alpha formats.
Assay [2] concerns TGF-β signaling (TGF-β pSMAD, MPC-11). Put plainly: AlphaScreen SureFire SMAD3 (p-Ser423/425) assay, inhibition of TGF-β signaling. Format: cell-based. The settings on record: Mus musculus, p-SMAD-3 (Ser423/425) in cell lysate after TGF-β stimulation. The method in brief: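 Phosphorylation of endogenous SMAD-3 at Ser423/425 was quantified with an AlphaScreen SureFire assay. Cells were exposed to compound for about 10 minutes, stimulated with TGF-β, and lysed in 1× Lysis Buffer. Lysate (5 μL) was combined with Reaction/Activation buffer plus Acceptor beads for 2 hours, then Donor beads for 1½ hours, and read on a plate reader.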

In the case of `COc1c(F)ccc(-c2nn3c(c2-c2ccc4[nH]ncc4c2)CCC3)c1F` [Compound 161, 5-(2-(2,4-Difluoro-3-methoxyphenyl)-5,6-dihydro-4H-pyrrolo[1,2-b]pyraozl-3-yl)-1H-indazole], the IC50 was 626 nM in assay [1] and 1440 nM in assay [2].

As to `COc1c(F)ccc(-c2nn3c(c2-c2ccc4ncsc4c2)CCC3)c1F` [Compound 162, 6-(2-(2,4-Difluoro-3-methoxyphenyl)-5,6-dihydro-4H-pyrrolo[1,2-b]pyrazol-3-yl)benzo[d]thiazole], the figures for the IC50 in assay [1] and in assay [2] were 555 nM and 2220 nM, respectively.

With `COc1c(F)ccc(-c2nn3c(c2-c2ccc4ncnn4c2)CCC3)c1F` [Compound 163, 6-(2-(2,4-Difluoro-3-methoxyphenyl)-5,6-dihydro-4H-pyrrolo[1,2-b]pyrazol-3-yl)-[1,2,4]triazolo[1,5-a]pyridine], the 50% inhibitory concentration (IC50) in assay [1] is 430 nM; in assay [2], 1340 nM.

Consider `COc1ccc(F)c(-c2nn3c(c2-c2ccc4nccn4c2)CCC3)c1` [Compound 164, 6-(2-(2-Fluoro-5-methoxyphenyl)-5,6-dihydro-4H-pyrrolo[1,2-b]pyrazol-3-yl)imidazo[1,2-a]pyridine], for which the values for the IC50 in assay [1] and in assay [2] were 570 nM and 1310 nM, respectively.

As for `COc1ccc(F)c(-c2nn3c(c2-c2ccc4nccnc4c2)CCC3)c1` [Compound 165, 6-(2-(2-Fluoro-5-methoxyphenyl)-5,6-dihydro-4H-pyrrolo[1,2-b]pyrazol-3-yl)quinoxaline], the IC50 in assay [1] was determined as 7.2 nM; in assay [2] it was 29 nM.

Regarding `Cc1c(F)ccc(-c2nn3c(c2-c2ccc4[nH]ncc4c2)CCC3)c1F` [Compound 167, 5-(2-(2,4-Difluoro-3-methylphenyl)-5,6-dihydro-4H-pyrrolo[1,2-b]pyrazol-3-yl)-1H-indazole], the results for the IC50 in assay [1] and in assay [2] were 209 nM and 538 nM, respectively.

With `Cc1c(F)ccc(-c2nn3c(c2-c2ccc4cn[nH]c4c2)CCC3)c1F` [Compound 168, 6-(2-(2,4-Difluoro-3-methylphenyl)-5,6-dihydro-4H-pyrrolo[1,2-b]pyrazol-3-yl)-1H-indazole], the results for the IC50 in assay [1] and in assay [2] were 414 nM and 797 nM, respectively.

In the case of `Cc1c(F)ccc(-c2nn3c(c2-c2ccc4nccn4c2)CCC3)c1F` [Compound 169, 6-(2-(2,4-Difluoro-3-methylphenyl)-5,6-dihydro-4H-pyrrolo[1,2-b]pyrazol-3-yl)imidazo[1,2-a]pyridine], the results for the IC50 in assay [1] and in assay [2] were 178 nM and 464 nM, respectively.

As for `Cc1c(F)ccc(-c2nn3c(c2-c2ccc4ncsc4c2)CCC3)c1F` [Compound 170, 6-(2-(2,4-Difluoro-3-methylphenyl)-5,6-dihydro-4H-pyrrolo[1,2-b]pyrazol-3-yl)benzo[d]thiazole], the IC50 in assay [1] came out at 213 nM; in assay [2], 603 nM.

As for `Cc1c(F)ccc(-c2nn3c(c2-c2ccc4ncccc4c2)CCC3)c1F` [Compound 171, 6-(2-(2,4-Difluoro-3-methylphenyl)-5,6-dihydro-4H-pyrrolo[1,2-b]pyrazol-3-yl)quinoline], the IC50 was 1220 nM in assay [1] and 1840 nM in assay [2].

`Cc1c(F)ccc(-c2nn3c(c2-c2ccc4nccnc4c2)CCC3)c1F` [Compound 172, 6-(2-(2,4-Difluoro-3-methylphenyl)-5,6-dihydro-4H-pyrrolo[1,2-b]pyrazol-3-yl)quinoxaline]: the values for the 50% inhibitory concentration (IC50) in assay [1] and in assay [2] were 678 nM and 1780 nM, respectively.

As for `Cc1c(F)ccc(-c2nn3c(c2-c2ccc4ncnn4c2)CCC3)c1F` [Compound 173, 6-(2-(2,4-Difluoro-3-methyphenyl)-5,6-dihydro-4H-pyrrolo[1,2-b]pyrazol-3-yl)-[1,2,4]triazolo[1,5-a]pyridine], the IC50 came out at 131 nM in assay [1] and 335 nM in assay [2].

For `Fc1ccc(Cl)cc1-c1nn2c(c1-c1ccc3cn[nH]c3c1)CCC2` [Compound 174, 6-(2-(5-Chloro-2-fluorophenyl)-5,6-dihydro-4H-pyrrolo[1,2-b]pyrazol-3-yl)-1H-indazole], the figures for the half-maximal inhibitory concentration (IC50) in assay [1] and in assay [2] were 36.7 nM and 153 nM, respectively.

In the case of `Fc1ccc(Cl)cc1-c1nn2c(c1-c1ccc3ncsc3c1)CCC2` [Compound 175, 6-(2-(5-Chloro-2-fluorophenyl)-5,6-dihydro-4H-pyrrolo[1,2-b]pyrazol-3-yl)benzo[d]thiazole], the IC50 worked out at 28.3 nM in assay [1] and 41.9 nM in assay [2].

In the case of `Fc1ccc(Cl)cc1-c1nn2c(c1-c1ccc3ncccc3c1)CCC2` [Compound 176, 6-(2-(5-Chloro-2-fluorophenyl)-5,6-dihydro-4H-pyrrolo[1,2-b]pyrazol-3-yl)quinoline], the figures for the half-maximal inhibitory concentration (IC50) in assay [1] and in assay [2] were 46.6 nM and 139 nM, respectively.

Take `Fc1ccc(Cl)cc1-c1nn2c(c1-c1ccc3nccnc3c1)CCC2` [Compound 177, 6-(2-(5-Chloro-2-fluorophenyl)-5,6-dihydro-4H-pyrrolo[1,2-b]pyrazol-3-yl)quinoxaline]: the concentration for half-maximal inhibition (IC50) in assay [1] is 35.6 nM; in assay [2], 83.5 nM.

Turning to `Fc1ccc(Cl)cc1-c1nn2c(c1-c1ccc3ncnn3c1)CCC2` [Compound 178, 6-(2-(5-Chloro-2-fluorophenyl)-5,6-dihydro-4H-pyrrolo[1,2-b]pyrazol-3-yl)-[1,2,4]triazolo[1,5-a]pyridine], the IC50 was found to be 13.2 nM in assay [1] and 31.1 nM in assay [2].

With `Cc1cc(-c2nn3c(c2-c2ccc4[nH]ncc4c2)CCC3)c(F)cc1F` [Compound 179, 5-(2-(2,4-Difluoro-5-methyphenyl)-5,6-dihydro-4H-pyrrolo[1,2-b]pyrazol-3-yl)-1H-indazole], the IC50 amounted to 172 nM in assay [1] and 714 nM in assay [2].

As for `Cc1cc(-c2nn3c(c2-c2ccc4cn[nH]c4c2)CCC3)c(F)cc1F` [Compound 180, 6-(2-(2,4-Difluoro-5-methylphenyl)-5,6-dihydro-4H-pyrrolo[1,2-b]pyrazol-3-yl)-1H-indazole], the IC50 in assay [1] was determined as 587 nM; in assay [2], 1750 nM.

Turning to `Cc1cc(-c2nn3c(c2-c2ccc4nccn4c2)CCC3)c(F)cc1F` [Compound 181, 6-(2-(2,4-Difluoro-5-methylphenyl)-5,6-dihydro-4H-pyrrolo[1,2-b]pyrazol-3-yl)imidazo[1,2-a]pyridine], the IC50 is 204 nM in assay [1] and 380 nM in assay [2].

As for `Cc1cc(-c2nn3c(c2-c2ccc4ncsc4c2)CCC3)c(F)cc1F` [Compound 182, 6-(2-(2,4-Difluoro-5-methylphenyl)-5,6-dihydro-4H-pyrrolo[1,2-b]pyrazol-3-yl)benzo[d]thiazole], the IC50 in assay [1] was 112 nM; in assay [2], 225 nM.

On to `Cc1cc(-c2nn3c(c2-c2ccc4ncccc4c2)CCC3)c(F)cc1F` [Compound 183, 6-(2-(2,4-Difluoro-5-methylphenyl)-5,6-dihydro-4H-pyrrolo[1,2-b]pyrazol-3-yl)quinoline], for which the values for the concentration for half-maximal inhibition (IC50) in assay [1] and in assay [2] were 463 nM and 1640 nM, respectively.

Turning to `Cc1cc(-c2nn3c(c2-c2ccc4nccnc4c2)CCC3)c(F)cc1F` [Compound 184, 6-(2-(2,4-Difluoro-5-methylphenyl)-5,6-dihydro-4H-pyrrolo[1,2-b]pyrazol-3-yl)quinoxaline], the IC50 in assay [1] came out at 139 nM; in assay [2], 302 nM.

On to `Cc1cc(-c2nn3c(c2-c2ccc4ncnn4c2)CCC3)c(F)cc1F` [Compound 185, 6-(2-(2,4-Difluoro-5-methylphenyl)-5,6-dihydro-4H-pyrrolo[1,2-b]pyrazol-3-yl)-[1,2,4]triazolo[1,5-a]pyridine], for which the IC50 in assay [1] came to 38.5 nM; in assay [2] it was 69.6 nM.

On to `Fc1cc(F)c(-c2nn3c(c2-c2ccc4[nH]ncc4c2)CCC3)cc1Cl` [Compound 186, 5-(2-(5-Chloro-2,4-difluorophenyl)-5,6-dihydro-4H-pyrrolo[1,2-b]pyrazol-3-yl)-1H-indazole], for which the IC50 was found to be 106 nM in assay [1] and 350 nM in assay [2].

`Fc1cc(F)c(-c2nn3c(c2-c2ccc4cn[nH]c4c2)CCC3)cc1Cl` [Compound 187, 6-(2-(5-Chloro-2,4-difluorophenyl)-5,6-dihydro-4H-pyrrolo[1,2-b]pyrazol-3-yl)-1H-indazole]: the IC50 in assay [1] is 135 nM; in assay [2] it was 656 nM.

For `Fc1cc(F)c(-c2nn3c(c2-c2ccc4nccn4c2)CCC3)cc1Cl` [Compound 188, 6-(2-(5-Chloro-2,4-difluorophenyl)-5,6-dihydro-4H-pyrrolo[1,2-b]pyrazol-3-yl)imidazo[1,2-a]pyridine], the IC50 in assay [1] worked out at 63 nM; in assay [2], 81.7 nM.

Take `Fc1cc(F)c(-c2nn3c(c2-c2ccc4ncsc4c2)CCC3)cc1Cl` [Compound 189, 6-(2-(5-Chloro-2,4-difluorophenyl)-5,6-dihydro-4H-pyrrolo[1,2-b]pyrazol-3-yl)benzo[d]thiazole]: the IC50 in assay [1] worked out at 130 nM; in assay [2], 232 nM.

Regarding `Fc1cc(F)c(-c2nn3c(c2-c2ccc4ncccc4c2)CCC3)cc1Cl` [Compound 190, 6-(2-(5-Chloro-2,4-difluorophenyl)-5,6-dihydro-4H-pyrrolo[1,2-b]pyrazol-3-yl)quinoline], the IC50 in assay [1] was determined as 272 nM; in assay [2], 872 nM.

For the molecule `Fc1cc(F)c(-c2nn3c(c2-c2ccc4nccnc4c2)CCC3)cc1Cl` [Compound 191, 6-(2-(5-Chloro-2,4-difluorophenyl)-5,6-dihydro-4H-pyrrolo[1,2-b]pyrazol-3-yl)quinoxaline], the IC50 is 74 nM in assay [1] and 212 nM in assay [2].

With `Fc1cc(F)c(-c2nn3c(c2-c2ccc4ncnn4c2)CCC3)cc1Cl` [Compound 192, 6-(2-(5-Chloro-2,4-difluorophenyl)-5,6-dihydro-4H-pyrrolo[1,2-b]pyrazol-3-yl)-[1,2,4]triazolo[1,5-a]pyridine], the 50% inhibitory concentration (IC50) in assay [1] came to 43.6 nM; in assay [2] it was 66 nM.

(Values after patent US10822337B2, “TGF-β inhibitorC” (Rigel Pharmaceuticals, Inc., priority 2015, dated 2020).)
